In paper PMC8617944, “Preclinical Pharmacokinetics and Acute Toxicity in Rats of 5-{[(2E)-3-Bromo-3-carboxyprop-2-enoyl]amino}-2-hydroxybenzoic Acid: A Novel 5-Aminosalicylic Acid Derivative with Potent Anti-Inflammatory Activity” (Molecules, 2021):
Entries after “also recorded” stand apart in the source; their conditions may differ. Where two headings read alike, the source gives them in different places.

Key:
[1] = Distribution of C1 in tissues; format: in vivo, Wistar rats; details: p.o. 75 mg/kg
Experimental: Fifteen male Wistar rats were distributed in five groups (n = 3) and rats were orally administered C1 at a single dose of 75 mg/kg. Subsequently, a group of animals was sacrificed (n = 3) at 10, 30, 90, 180, and 360 min. […] All tissues and organs were weighed on an analytical balance and immediately processed. Each tissue sample was homogenized with saline solution in a 1:3 (wt/v) ratio. The preparation process for analysis was the same as described above for plasma samples [57] (File S8).

[2] = Acute toxicity, up-and-down OECD method (Guideline 425); format: in vivo; details: both sexes, rat, in vivo, Wistar rats, read-out: Median lethal dose (LD50)
Experimental: (§1) For all experiments, rats were allowed to acclimatize to the lab conditions during one week prior to undergoing assays. For the pharmacokinetic studies, animals were randomly divided into three groups (n = 6, body weight 300 ± 20 g). Eight female rats were employed in the up-and-down acute toxicity procedure. The animals were fasted for 8 h before and 4 h after drug administration but always given free access to water.
(§2) If the first animal dies, the second animal is given a lower dose. A dose progression factor of 3.2 can be used. […] The animals were monitored for 14 days post-dosing and then sacrificed. The LD50 values were calculated with AOTStatPgm.

[3] = system: Wistar rats; experiment: as above; format: in vivo
Experimental: as §1, §2

[4] = system: myeloperoxidase (MPO); design: method as in ref 32, 33 = [32]; doi:10.1016/j.arabjc.2016.12.026; 32. Cabrera Pérez L.C. Gutiérrez Sánchez M. Mendieta Wejebe J.E. Hernández Rodríguez M. Fragoso Vázquez M.J. Salazar J.R. Correa Basurto J. Padilla Martínez I.I. Rosales Hernández M.C. Novel 5-aminosa || [33]; 33. Correa Basurto J. Rosales Hernández M.C. Mendieta Wejebe J.E. Trujillo Ferrara J.G. Padilla Martínez I.I. Ramírez Durán L.A. Alemán González Duhart D. Síntesis de un derivado del ácido 5-aminosali; details: o-dianisidine method; cited from earlier work

In the case of `O=C(/C=C(/Br)C(=O)O)Nc1ccc(O)c(C(=O)O)c1` [Compound C1, 5-{[(2E)-3-bromo-3-carboxyprop-2-enoyl]amino}-2-hydroxybenzoic acid], the concentration at 6 h ([1]; male, Wistar, rat, heart, po, 75 mg/kg, Hearth, individual rats, read-out: Concentration (µg/mL) at 6 h, Rat 1-3) is reported as 2.4 µg/mL, the concentration at 10 min ([1]; male, Wistar, rat, kidney, po, 75 mg/kg, Kidney, 10 min, n = 3, read-out: Average Concentration) is reported as 16 µg/mL and the concentration at 30 min ([1]; male, Wistar, rat, kidney, po, 75 mg/kg, Kidney, 30 min, n = 3, read-out: Average Concentration) is reported as 6.9 µg/mL. The concentration at 90 min ([1]; male, Wistar, rat, kidney, po, 75 mg/kg, Kidney, 90 min, n = 3, read-out: Average Concentration) was 4.8 µg/mL, the concentration at 3 h ([1]; male, Wistar, rat, kidney, po, 75 mg/kg, Kidney, 3 h, n = 3, read-out: Average Concentration) was 4.7 µg/mL and the concentration at 6 h ([1]; male, Wistar, rat, kidney, po, 75 mg/kg, Kidney, 6 h, n = 3, read-out: Average Concentration) was 4.1 µg/mL. For the same compound, the concentration at 30 min ([1]; male, Wistar, rat, kidney, po, 75 mg/kg, Kidney, individual rats, read-out: Concentration (µg/mL) at 30 minutes, Rat 1-3) was 6.1 µg/mL, the concentration at 90 min ([1]; male, Wistar, rat, kidney, po, 75 mg/kg, Kidney, individual rats, read-out: Concentration (µg/mL) at 90 minutes, Rat 1-3) was 3.6 µg/mL and the concentration at 10 min ([1]; male, Wistar, rat, liver, po, 75 mg/kg, Liver, 10 min, n = 3, read-out: Average Concentration) was 4.6 µg/mL. The concentration at 30 min ([1]; male, Wistar, rat, liver, po, 75 mg/kg, Liver, 30 min, n = 3, read-out: Average Concentration) was 6.4 µg/mL, the concentration at 90 min ([1]; male, Wistar, rat, liver, po, 75 mg/kg, Liver, 90 min, n = 3, read-out: Average Concentration) was 4.4 µg/mL and the concentration at 3 h ([1]; male, Wistar, rat, liver, po, 75 mg/kg, Liver, 3 h, n = 3, read-out: Average Concentration) was 4.9 µg/mL. For the same compound, the concentration at 6 h ([1]; male, Wistar, rat, liver, po, 75 mg/kg, Liver, 6 h, n = 3, read-out: Average Concentration) was 4.2 µg/mL, the concentration at 10 min ([1]; male, Wistar, rat, liver, po, 75 mg/kg, Liver, individual rats, read-out: Concentration (µg/mL) at 10 minutes, Rat 1-3) was 4.4 µg/mL and the concentration at 30 min ([1]; male, Wistar, rat, liver, po, 75 mg/kg, Liver, individual rats, read-out: Concentration (µg/mL) at 30 minutes, Rat 1-3) was 5.8 µg/mL. It also gave a concentration at 10 min ([1]; male, Wistar, rat, lung, po, 75 mg/kg, Lung, 10 min, n = 3, read-out: Average Concentration) of 15.7 µg/mL, a concentration at 30 min ([1]; male, Wistar, rat, lung, po, 75 mg/kg, Lung, 30 min, n = 3, read-out: Average Concentration) of 10.7 µg/mL and a concentration at 90 min ([1]; male, Wistar, rat, lung, po, 75 mg/kg, Lung, 90 min, n = 3, read-out: Average Concentration) of 7.4 µg/mL. For the same compound, the concentration at 3 h ([1]; male, Wistar, rat, lung, po, 75 mg/kg, Lung, 3 h, n = 3, read-out: Average Concentration) was 7.2 µg/mL, the concentration at 6 h ([1]; male, Wistar, rat, lung, po, 75 mg/kg, Lung, 6 h, n = 3, read-out: Average Concentration) was 6.3 µg/mL and the concentration at 10 min ([1]; male, Wistar, rat, muscle, po, 75 mg/kg, Muscle, 10 min, n = 3, read-out: Average Concentration) was 4.7 µg/mL. The concentration at 30 min ([1]; male, Wistar, rat, muscle, po, 75 mg/kg, Muscle, 30 min, n = 3, read-out: Average Concentration) was 3.8 µg/mL, the concentration at 90 min ([1]; male, Wistar, rat, muscle, po, 75 mg/kg, Muscle, 90 min, n = 3, read-out: Average Concentration) was 3.3 µg/mL and the concentration at 3 h ([1]; male, Wistar, rat, muscle, po, 75 mg/kg, Muscle, 3 h, n = 3, read-out: Average Concentration) was 2.7 µg/mL. For the same compound, the concentration at 6 h ([1]; male, Wistar, rat, muscle, po, 75 mg/kg, Muscle, 6 h, n = 3, read-out: Average Concentration) was 2.5 µg/mL, the concentration at 10 min ([1]; male, Wistar, rat, muscle, po, 75 mg/kg, Muscle, individual rats, read-out: Concentration (µg/mL) at 10 minutes, Rat 1-3) was 4.8 µg/mL and the concentration at 30 min ([1]; male, Wistar, rat, muscle, po, 75 mg/kg, Muscle, individual rats, read-out: Concentration (µg/mL) at 30 minutes, Rat 1-3) was 3.4 µg/mL. The concentration at 90 min ([1]; male, Wistar, rat, muscle, po, 75 mg/kg, Muscle, individual rats, read-out: Concentration (µg/mL) at 90 minutes, Rat 1-3) was 3.2 µg/mL, the concentration at 3 h ([1]; male, Wistar, rat, muscle, po, 75 mg/kg, Muscle, individual rats, read-out: Concentration (µg/mL) at 3 h, Rat 1-3) was 3 µg/mL and the Tmax ([1]; male, Wistar, rat, po, rats, read-out: time of maximum concentration in tissues and organs (converted)) was 10 min. The concentration at 10 min ([1]; male, Wistar, rat, small intestine, po, 75 mg/kg, Small intestine, 10 min, n = 3, read-out: Average Concentration) was 31.6 µg/mL, the concentration at 30 min ([1]; male, Wistar, rat, small intestine, po, 75 mg/kg, Small intestine, 30 min, n = 3, read-out: Average Concentration) was 15.7 µg/mL and the concentration at 90 min ([1]; male, Wistar, rat, small intestine, po, 75 mg/kg, Small intestine, 90 min, n = 3, read-out: Average Concentration) was 15.8 µg/mL. The concentration at 3 h ([1]; male, Wistar, rat, small intestine, po, 75 mg/kg, Small intestine, 3 h, n = 3, read-out: Average Concentration) was 14.8 µg/mL, the concentration at 6 h ([1]; male, Wistar, rat, small intestine, po, 75 mg/kg, Small intestine, 6 h, n = 3, read-out: Average Concentration) was 10.1 µg/mL and the concentration at 90 min ([1]; male, Wistar, rat, small intestine, po, 75 mg/kg, Small intestine, individual rats, read-out: Concentration (µg/mL) at 90 minutes, Rat 1-3) was 15.1 µg/mL. The concentration at 3 h ([1]; male, Wistar, rat, small intestine, po, 75 mg/kg, Small intestine, individual rats, read-out: Concentration (µg/mL) at 3 h, Rat 1-3) was 14.2 µg/mL, the concentration at 6 h ([1]; male, Wistar, rat, small intestine, po, 75 mg/kg, Small intestine, individual rats, read-out: Concentration (µg/mL) at 6 h, Rat 1-3) was 9.1 µg/mL and the concentration at 10 min ([1]; male, Wistar, rat, spleen, po, 75 mg/kg, Spleen, 10 min, n = 3, read-out: Average Concentration) was 31.8 µg/mL. It also gave a concentration at 30 min ([1]; male, Wistar, rat, spleen, po, 75 mg/kg, Spleen, 30 min, n = 3, read-out: Average Concentration) of 17.2 µg/mL, a concentration at 90 min ([1]; male, Wistar, rat, spleen, po, 75 mg/kg, Spleen, 90 min, n = 3, read-out: Average Concentration) of 11.7 µg/mL and a concentration at 3 h ([1]; male, Wistar, rat, spleen, po, 75 mg/kg, Spleen, 3 h, n = 3, read-out: Average Concentration) of 8.7 µg/mL. It also gave a concentration at 6 h ([1]; male, Wistar, rat, spleen, po, 75 mg/kg, Spleen, 6 h, n = 3, read-out: Average Concentration) of 7.8 µg/mL, a concentration at 10 min ([1]; male, Wistar, rat, spleen, po, 75 mg/kg, Spleen, individual rats, read-out: Concentration (µg/mL) at 10 minutes, Rat 1-3) of 30 µg/mL and a concentration at 30 min ([1]; male, Wistar, rat, spleen, po, 75 mg/kg, Spleen, individual rats, read-out: Concentration (µg/mL) at 30 minutes, Rat 1-3) of 21 µg/mL. It also gave a concentration at 10 min ([1]; male, Wistar, rat, stomach, po, 75 mg/kg, Stomach, 10 min, n = 3, read-out: Average Concentration) of 18.3 µg/mL, a concentration at 30 min ([1]; male, Wistar, rat, stomach, po, 75 mg/kg, Stomach, 30 min, n = 3, read-out: Average Concentration) of 10.2 µg/mL and a concentration at 90 min ([1]; male, Wistar, rat, stomach, po, 75 mg/kg, Stomach, 90 min, n = 3, read-out: Average Concentration) of 7.9 µg/mL. It also gave a concentration at 3 h ([1]; male, Wistar, rat, stomach, po, 75 mg/kg, Stomach, 3 h, n = 3, read-out: Average Concentration) of 6.4 µg/mL, a concentration at 6 h ([1]; male, Wistar, rat, stomach, po, 75 mg/kg, Stomach, 6 h, n = 3, read-out: Average Concentration) of 4.7 µg/mL and a concentration at 10 min ([1]; male, Wistar, rat, testis, po, 75 mg/kg, Testis, 10 min, n = 3, read-out: Average Concentration) of 9.9 µg/mL. It also gave a concentration at 30 min ([1]; male, Wistar, rat, testis, po, 75 mg/kg, Testis, 30 min, n = 3, read-out: Average Concentration) of 3.8 µg/mL, a concentration at 90 min ([1]; male, Wistar, rat, testis, po, 75 mg/kg, Testis, 90 min, n = 3, read-out: Average Concentration) of 4 µg/mL and a concentration at 3 h ([1]; male, Wistar, rat, testis, po, 75 mg/kg, Testis, 3 h, n = 3, read-out: Average Concentration) of 3 µg/mL. The concentration at 6 h ([1]; male, Wistar, rat, testis, po, 75 mg/kg, Testis, 6 h, n = 3, read-out: Average Concentration) was 3.1 µg/mL, the concentration at 30 min ([1]; male, Wistar, rat, testis, po, 75 mg/kg, Testis, individual rats, read-out: Concentration (µg/mL) at 30 minutes, Rat 1-3) was 4 µg/mL and the concentration at 3 h ([1]; male, Wistar, rat, testis, po, 75 mg/kg, Testis, individual rats, read-out: Concentration (µg/mL) at 3 h, Rat 1-3) was 3.1 µg/mL. For the same compound, the concentration at 6 h ([1]; male, Wistar, rat, testis, po, 75 mg/kg, Testis, individual rats, read-out: Concentration (µg/mL) at 6 h, Rat 1-3) was 2.1 µg/mL, the “crossing of blood-brain barrier and hemato-testicular barrier” value ([1]; rats, 75 mg/kg) was “able to cross the blood-brain barrier and hemato-testicular barrier; also recorded: crossed the hemato-encephalic barrier” and the LD50 at 14 days ([2]; ip) was greater than 1100 mg/kg. The LD50 at 14 days ([2]; po) was greater than 2000 mg/kg, the GHS category ([3]; i.p. route) was 4 and the “macroscopic changes at necropsy” value ([3]; liver, small intestine, colon, heart, spleen, stomach, kidneys) was “no macroscopic changes were observed; also recorded: non-macroscopic changes”. For the same compound, the GHS category ([3]; p.o. route) was 5, the signs of toxicity ([3]; p.o. route, 14 days) was “did not show any signs of apparent toxicity” and the “inhibition of myeloperoxidase (MPO)” value [4] was “comparable to that of indomethacin”.
